Experimental data published in ChEMBL document CHEMBL4834431, “Design of Dimeric Bile Acid Derivatives as Potent and Selective Human NTCP Inhibitors” (J Med Chem, 2021).
Activity calls are given as the source filed them. The rule behind the calls is not given here.

Experiments:
Hepatitis B virus [1] = assay: Antiviral activity against HBV infected in human HepG2-NTCP cells assessed as reduction in HBeAg secretion incubated for 24 hrs followed replacement with fresh medium and measured at day 5 post infection by ELISA; type: functional, organism-based
Hepatitis delta virus = assay: Antiviral activity against HDV infected in human HepG2-NTCP cells assessed as reduction in intranuclear accumulation of HDV delta antigen at 5 uM incubated for 24 hrs followed by replacement with fresh medium and measured at day 5 post infection by DAPI staining based confocal microscopic analysis (reference value: 12.1 %); type: functional; parameters: scale not given: the % may be the effect or the level left
Hepatitis B virus [2] = assay: Antiviral activity against HBV infected in human HepG2-NTCP cells assessed as reduction in intracellular HBV RNA level at 1 uM by qPCR analysis; type: functional, organism-based
Hepatocyte = assay: Cytotoxicity against primary tupaia hepatocytes expressing NTCP assessed as reduction in cell viability at 100 uM after 48 hrs by Cell-Titer Glo assay; type: cell-based; conditions: scandentia
Hepatitis B virus [3] = assay: Antiviral activity against HBV infected in human HepG2-NTCP cells assessed as reduction in HBeAg secretion at 1 uM preincubated with compound followed by viral infection by ELISA; type: functional, organism-based
Hepatitis B virus [4] = assay: Antiviral activity against HBV infected in human HepG2-NTCP cells assessed as reduction in intracellular accumulation of HBsAg at 1 uM by immunostaining based fluorescence microscopic analysis; type: functional, organism-based
Hepatitis B virus [5] = assay: Antiviral activity against HBV infected in human HepG2-NTCP cells assessed as reduction in intracellular accumulation of HBcAg at 1 uM by immunostaining based fluorescence microscopic analysis; type: functional, organism-based
Hepatitis B virus [6] = assay: Antiviral activity against HBV infected in human HepG2-NTCP cells assessed as reduction in HBeAg secretion at 1 uM compound added along with viral infection by ELISA; type: functional, organism-based
Hepatitis B virus [7] = assay: Antiviral activity against HBV infected in human HepG2-NTCP cells assessed as reduction in HBeAg secretion at 111 to 1000 nM incubated for 24 hrs followed by replacement with fresh medium and measured at day 5 post infection by ELISA; type: functional, organism-based; conditions: dose 111-1000 nM
[8] = target: T1, Hepatic sodium/bile acid cotransporter (Homo sapiens, UniProt Q14973); assay: Inhibition of FITC-labeled HBV Pre-S1 polypeptide binding to human NTCP expressed in HepG2 cells after 2 to 3 hrs by confocal microscopic analysis; type: cell-based; conditions: time 2-3 hrs
T1 sequence (Q14973 whole entry): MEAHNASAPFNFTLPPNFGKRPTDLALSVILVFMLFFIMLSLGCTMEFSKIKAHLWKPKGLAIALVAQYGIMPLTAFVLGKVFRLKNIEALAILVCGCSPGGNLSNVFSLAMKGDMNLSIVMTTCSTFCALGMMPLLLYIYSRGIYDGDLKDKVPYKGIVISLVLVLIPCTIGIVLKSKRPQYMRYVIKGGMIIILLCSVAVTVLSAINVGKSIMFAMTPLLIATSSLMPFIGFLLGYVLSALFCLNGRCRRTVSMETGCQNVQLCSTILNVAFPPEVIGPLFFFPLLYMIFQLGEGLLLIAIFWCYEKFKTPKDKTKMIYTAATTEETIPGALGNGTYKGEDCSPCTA

HepG2 [9] = assay: Cytotoxicity against human HepG2 cells expressing NTCP assessed as reduction in cell viability at 10 uM after 48 hrs by alamar blue assay; type: cell-based; conditions: hepg2, 48 h
Hepatitis B virus [10] = assay: Antiviral activity against HBV infected in human HepG2-NTCP cells assessed as reduction in HBeAg secretion at 1 uM pre-infected with virus followed by compound addition by ELISA; type: functional, organism-based
HepG2 [11] = assay: Effect on NTCP surface expression in human HepG2-NTCP cells assessed as reduction in NTCP surface expression level after 2 hrs by immunostaining based assay; type: functional, cell-based
[12] = target: T2, Ileal sodium/bile acid cotransporter (Homo sapiens, UniProt Q12908); assay: Inhibition of human ASBT-mediated [3H]-TCA uptake expressed in human HepG2 cells at 2 uM; type: cell-based; conditions: hepg2, 2 µM
T2 sequence (Q12908 whole entry): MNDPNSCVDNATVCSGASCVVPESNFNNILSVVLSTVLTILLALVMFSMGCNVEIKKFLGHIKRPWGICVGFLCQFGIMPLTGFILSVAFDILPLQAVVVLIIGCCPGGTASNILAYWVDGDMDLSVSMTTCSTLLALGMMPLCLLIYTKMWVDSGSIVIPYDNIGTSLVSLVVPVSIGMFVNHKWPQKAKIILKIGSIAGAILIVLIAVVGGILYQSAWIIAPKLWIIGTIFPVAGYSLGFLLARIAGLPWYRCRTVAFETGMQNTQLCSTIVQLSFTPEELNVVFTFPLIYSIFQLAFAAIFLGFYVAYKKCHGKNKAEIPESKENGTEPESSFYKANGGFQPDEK

[13] = target: T1, Hepatic sodium/bile acid cotransporter; assay: Inhibition of human NTCP-mediated [3H]-TCA uptake expressed in human HepG2 cells at 2 uM; type: cell-based; conditions: hepg2, 2 µM
[14] = target: T3, Solute carrier organic anion transporter family member 1B1 (Homo sapiens, UniProt Q9Y6L6); assay: Inhibition of human OATP1B1-mediated [3H]-Estrone sulfate uptake expressed in human HepG2 cells at 2 uM; type: cell-based; conditions: hepg2, 2 µM
T3 sequence (Q9Y6L6 whole entry): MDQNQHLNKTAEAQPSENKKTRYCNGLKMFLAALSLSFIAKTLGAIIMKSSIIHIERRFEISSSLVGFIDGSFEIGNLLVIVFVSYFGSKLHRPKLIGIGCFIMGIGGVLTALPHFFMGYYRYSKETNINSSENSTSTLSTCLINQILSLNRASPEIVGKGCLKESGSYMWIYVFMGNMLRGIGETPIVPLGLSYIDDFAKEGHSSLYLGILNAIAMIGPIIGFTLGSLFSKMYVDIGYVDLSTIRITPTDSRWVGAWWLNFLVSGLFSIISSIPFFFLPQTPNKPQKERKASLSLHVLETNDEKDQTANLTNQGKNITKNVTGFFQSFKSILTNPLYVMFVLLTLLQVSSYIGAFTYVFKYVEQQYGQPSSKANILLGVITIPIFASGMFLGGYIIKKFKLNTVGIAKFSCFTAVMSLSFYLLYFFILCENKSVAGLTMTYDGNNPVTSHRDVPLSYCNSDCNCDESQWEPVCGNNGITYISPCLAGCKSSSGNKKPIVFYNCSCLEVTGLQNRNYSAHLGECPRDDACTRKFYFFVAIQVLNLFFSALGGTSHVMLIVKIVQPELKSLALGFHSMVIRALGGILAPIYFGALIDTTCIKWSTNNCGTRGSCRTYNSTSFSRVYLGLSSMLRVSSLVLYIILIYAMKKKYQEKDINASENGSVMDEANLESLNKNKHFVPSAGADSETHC

[15] = target: T1, Hepatic sodium/bile acid cotransporter; assay: Inhibition of human NTCP-mediated [3H]-Estrone sulfate uptake expressed in human HepG2 cells at 2 uM; type: cell-based; conditions: hepg2, 2 µM
[16] = target: T1, Hepatic sodium/bile acid cotransporter; assay: Inhibition of human NTCP-mediated NQL-065 uptake expressed in human HepG2 cells incubated for 30 mins; type: cell-based; conditions: hepg2, 0.5 h
[17] = target: T1, Hepatic sodium/bile acid cotransporter; assay: Inhibition of human NTCP-mediated NQL-064 uptake expressed in human HepG2 cells incubated for 30 mins; type: cell-based; conditions: hepg2, 0.5 h
Hepatitis B virus [18] = assay: Antiviral activity against HBV infected in human HepG2-NTCP cells assessed as reduction in HBeAg secretion preincubated for 2 hrs followed by viral infection by ELISA; type: functional, organism-based
[19] = Stability in mouse liver microsomes assessed as intrinsic clearance at 1 uM preincubated for 5 mins followed by NADPH addition and measured upto 60 mins by LC-MS analysis; type: ADME, Microsome; conditions: time 65 min, read-out: CLH
[20] = Stability in mouse liver microsomes assessed as half life at 1 uM preincubated for 5 mins followed by NADPH addition and measured upto 60 mins by LC-MS analysis; type: ADME, Microsome; conditions: time 65 min
[21] = target: T1, Hepatic sodium/bile acid cotransporter; assay: Inhibition of human NTCP-mediated [3H]-TCA uptake expressed in human HepG2 cells pretreated for 2 hrs followed by [3H]-TCA addition in absence of FBS; type: cell-based

Row | SMILES | IC50 (Hepatitis B virus [1]) [nM] | Activity (Hepatitis delta virus) [%] | Activity (Hepatitis B virus [2]) | Activity (Hepatocyte) | Activity (Hepatitis B virus [3]) | Activity (Hepatitis B virus [4]) | Activity (Hepatitis B virus [5]) | Activity (Hepatitis B virus [6]) | Activity (Hepatitis B virus [7]) | inhibition (INH) [8] | Activity (HepG2 [9]) | Activity (Hepatitis B virus [10]) | Activity (HepG2 [11]) | inhibition (INH) [12] | inhibition (INH) [13] | inhibition (INH) [14] | inhibition (INH) [15] | other results
1 | C[C@@H]1CCC(=O)NCCNC(=O)CC[C@@H](C)[C@H]2CC[C@H]3[C@@H]4[C@@H](O)C[C@@H]5C[C@@H](CC[C@]5(C)[C@H]4CC[C@]23C)NC(=O)CCCC(=O)N[C@@H]2CC[C@@]3(C)[C@@H](C2)C[C@H](O)[C@@H]2[C@@H]3CC[C@]3(C)[C@@H]1CC[C@@H]23 | 100 | 2.9 | Active | Non-Toxic | Active | Active | Active | Active | Active | Active | Non-Toxic | inactive | inactive | Not Active | Active | Not Active | Active | 
2 | C[C@H](CCC(=O)NCCS(=O)(=O)O)[C@H]1CC[C@H]2[C@@H]3[C@@H](O)C[C@@H]4C[C@H](OC(=O)CCCC(=O)O[C@@H]5CC[C@@]6(C)[C@@H](C5)C[C@H](O)[C@@H]5[C@@H]6CC[C@]6(C)[C@@H]([C@H](C)CCC(=O)NCCS(=O)(=O)O)CC[C@@H]56)CC[C@]4(C)[C@H]3CC[C@]12C | 65 | 2.8 | Active | Non-Toxic | Active | Active | Active | Active | Active | Active | Non-Toxic | inactive | inactive | Not Active | Active | Not Active | Active | inhibition (INH) [16]: Active; inhibition (INH) [17]: Active; Activity (Hepatitis B virus [18]): inactive
3 | C[C@H](CCC(=O)N[C@@H]1CC[C@@]2(C)[C@@H](C1)C[C@H](O)[C@@H]1[C@@H]2CC[C@]2(C)[C@@H]([C@H](C)CCC(=O)NCCS(=O)(=O)O)CC[C@@H]12)[C@H]1CC[C@H]2[C@@H]3[C@@H](O)C[C@@H]4C[C@H](O)CC[C@]4(C)[C@H]3CC[C@]12C | 5 |  |  |  |  |  |  |  |  |  |  |  |  |  |  |  |  | microsomal CLint at 1 µM [19]: 994 µL/min/mg; half-life at 1 µM [20]: 42 s; IC50 [21]: 0.3 nM
